Results reported in patent publication US20240400584A1, “COMPOUNDS AND METHODS FOR MODULATING SPLICING” (REMIX THERAPEUTICS INC., priority 2021, published 2024).
Like-named read-outs stand apart in the source and are kept apart here.

Experiments:
HTT [1] = experiment: RT-qPCR splicing assay, HTT AJ/CJ mRNA; type: cell-based, human; settings: A673 or K562 cells; for IC50: decrease in canonical junction mRNA; for AC50: increase in alternative junction mRNA
Description: (§1) Compounds described herein were used to modulate RNA transcript abundance in cells. The expression of a target mRNA was measured by detecting the formation of an exon-exon junction in the canonical transcript (CJ). A compound mediated exon-inclusion event was detected by observing an increase in formation OF A new junction with an alternative exon (AJ). Real-time qPCR assays were used to detect these splicing switches and interrogate the potency of various compounds towards different target Genes. A high-throughput real time quantitative PCR (RT-qPCR) assay was developed to measure these two isoforms of the mRNA (CJ and AJ) for exemplary genes, such as HTT, SMN2, and MYB, together with a control housekeeping gene, GAPDH or GUSB or PPIA, used for normalization. Briefly, the A673 or K562 cell line was treated with various compounds described herein (e.g., compounds of Formula (i)). After treatment, the levels of the HTT, MYB, or SMN2 mRNA targets were determined from each sample of cell lysate by cDNA synthesis followed by qPCR.
(§2) The A673 cell line was cultured in DMEM with 10% FBS. Cells were diluted with full growth media and plated in a 96-well plate (15,000 cells in 100 ul media per well). The plate was incubated at 37° C. with 5% CO2 for 24 hours to allow cells to adhere. An 11-point 3-fold serial dilution of the compounds was made in DMSO then diluted in media in an intermediate plate. Compounds were transferred from the intermediate plate to the cell plate with the top dose at a final concentration of 10 uM in the well. Final DMSO concentration was kept at or below 0.25%. The cell plate was returned to the incubator at 37° C. with 5% CO2 for an additional 24 hours.
(§3) The K562 cell line was cultured in IMDM with 10% FBS. For K562, cells were diluted with full growth media and plated in either a 96-well plate (50,000 cells in 50 uL media per well) or a 384-well plate (8,000-40,000 cells in 45 uL media per well). An 11-point 3-fold serial dilution of the compounds were made in DMSO then diluted in media in an intermediate plate. Compound was transferred from the intermediate plate to the cell plate with the top dose at a final concentration of 10 uM in the well. Final DMSO concentration was kept at or below 0.25%. Final volume was 100 uL for 96-well plate and 50 uL for 384-well plate. The cell plate was then placed in an incubator at 37° C. with 5% CO2 for 24 hours.
(§4) The cells were then gently washed with 50 uL-100 uL Cold Pbs before proceeding to addition of lysis buffer. 30 uL-50 μL of room temperature lysis buffer with DNAse I (and optionally RNAsin) was added to each well. Cells were shaken/mixed thoroughly at room temperature for 5-10 minutes for lysis to take place and then 3 uL-5 μL of room temperature stop solution was added and wells were shaken/mixed again. After 2-5 minutes, the cell lysate plate was transferred to ice for RT-qPCR reaction setup. The lysates could also be frozen at −80° C. for later use.
(§5) In some cases, a direct lysis buffer was used. an appropriate volume of 3× lysis buffer (10 mM tRis, 150 mM NaCl, 1.5%-2.5% Igepal and 0.1-1 U/uL RNAsin, pH 7.4) was directly added to either K562 or A673 cells in media and mixed by pipetting 3 times. The plates were then incubated at room temperature with shaking/rocking for 20-50 minutes to allow for lysis to take place. After this time, the cell lysate plate was transferred to ice to set up for the RT-qPCR reactions. The lysates could also be frozen at −80° C. for later use.
(§6) To set up 10 uL RT-QpcR reactions, cell lysates were transferred to 384-well qPCR plates containing the master mix according to the table below. The plates were sealed, gently vortexed, and spun down before the run. The volumes were adjusted accordingly in some instances where the reaction was carried in 20 µL. The table below summarizes the components of the RT-qPCR reactions:
(§7) The RT-qPCR reaction was performed using a QuantStudio (ThermoFisher) under the following fast cycling conditions. […]

MYB [2] = experiment: RT-qPCR splicing assay, MYB AJ/CJ mRNA; type: cell-based; settings: Homo sapiens, A673 or K562 cells, 24 hours; for IC50: decrease in canonical junction mRNA; for AC50: increase in alternative junction mRNA
Description: as §1, §2, §3, §4, §5, §6, §7

Target C = experiment: Gene panel canonical junction qPCR assay, Target C CJ mRNA (Table 7); type: cell-based, human; settings: read-out: Target C CJ mRNA decrease IC50
Description: as §1
(§8) The data analysis was performed by first determining the ΔCt vs the housekeeper gene. This ΔCt was then normalized against the DMSO control (ΔΔCt) and converted to RQ (relative quantification) using the 2^(−ΔΔCt) equation. The RQ were then converted to a percentage response by arbitrarily setting an assay window of 3.5 and 4.0 ΔCt for HTT-CJ and MYB-CJ respectively and an assay window of 9 and 3 ΔCt for HTT-AJ and MYB-AJ in 96 well format (50,000 K562 cells/well and 15,000 A673 cells per well) and an assay window of 3 and 4 ΔCt for HTT-CJ and MYB-CJ respectively and an assay window of 5 and 3 ΔCt for HTT-AJ and MYB-AJ respectively in 384 well format (8,000 K562 cells/well example). […] The percentage response was then fitted to the 4 parametric logistic equation to evaluate the concentration dependence of compound treatment. The increase in AJ mRNA is reported as AC50 (compound concentration having 50% response in AJ increase) while the decrease in CJ mRNA levels is reported as IC50 (compound concentration having 50% response in CJ decrease).
(§9) Additional studies were carried out for a larger panel of genes using the protocol provided above. The junction between flanking upstream and downstream exons was used to design canonical junction qPCR assays. At least one of the forward primer, reverse primer or the CY5-labeled 5′ nuclease probe (with 3′ quencher such as ZEN/Iowa Black FQ) was designed to overlap with the exon junction to capture the CJ mRNA transcript. BLAST was used to confirm the specificity of the probeset and parameters such as melting temperature, GC content, amplicon size, and primer dimer formation are considered during their design. Data for the decrease in CJ mRNA levels for four exemplary genes (HTT, SMN2, MYB, and Target C) analyzed in this panel are reported as IC50 (compound concentration having 50% response in CJ decrease).

MYB [3] = experiment: Gene panel canonical junction qPCR assay, MYB CJ mRNA (Table 7); type: cell-based; settings: Homo sapiens, read-out: MYB CJ mRNA decrease IC50
Description: as §1, §8, §9

HTT [4] = experiment: Gene panel canonical junction qPCR assay, HTT CJ mRNA (Table 7); type: cell-based, human; settings: read-out: HTT CJ mRNA decrease IC50
Description: as §1, §8, §9

SMN2 = experiment: Gene panel canonical junction qPCR assay, SMN2 CJ mRNA (Table 7); type: cell-based; settings: Homo sapiens, read-out: SMN2 CJ mRNA decrease IC50
Description: as §1, §8, §9

IC50 (MYB [2]) [µM] | Compound | IC50 (HTT [1]; Homo sapiens, 24 h) [µM] | AC50 (HTT [1]; Homo sapiens, 24 h) [µM] | AC50 (MYB [2]) [µM] | IC50 (Target C; Homo sapiens) [µM] | IC50 (MYB [3]) [µM] | IC50 (HTT [4]; Homo sapiens) [µM] | IC50 (SMN2) [µM] | IC50 (HTT [1]; 24 hours) [µM] | AC50 (HTT [1]; 24 hours) [µM] | IC50 (Target C) [µM] | IC50 (HTT [4]) [µM]
1 to 10 | COc1cc(-c2ccc3c(c2)COc2nc(OC4CC(C)(C)NC(C)(C)C4)ncc2-3)cnn1 [Compound 299] | 0.1 to 1 | 0.1 to 1 | 1 to 10 | 1 to 10 | 1 to 10 | 0.1 to 1 | 0.1 to 1 | – | – | – | –
1 to 10 | CC(C)(C)N[C@H]1CCN(c2ccc3c(n2)OCc2cc(-c4cn[nH]c4)ccc2-3)C1 [Compound 258, (3S)—N-tert-butyl-1-[8-(1H-pyrazol-4-yl)-6H-isochromeno[3,4-b]pyridin-3-yl]pyrrolidin-3-amine] | 0.1 to 1 | 0.1 to 1 | 0.1 to 1 | 0.1 to 1 | 1 to 10 | 0.1 to 1 | 0.1 to 1 | – | – | – | –
– | c1cnn(-c2ccc3c(c2)COc2nc(N(C4CC4)[C@@H]4C[C@H]5CC[C@@H](C4)N5)ccc2-3)c1 [Compound 205] | 1 to 10 | 0.1 to 1 | – | – | – | – | – | – | – | – | –
> 10 | c1cnn(-c2ccc3c(c2)COc2nc(N4CCC(NC5CC5)C4)ccc2-3)c1 (centres unmarked) [Compound 214] | > 10 | – | – | – | – | – | – | – | – | – | –
– | CN(c1ccc2c(n1)OCc1cc(-n3cccn3)ccc1-2)[C@H]1[C@@H]2CNC[C@@H]21 [Compound 194] | 1 to 10 | 1 to 10 | – | > 10 | – | > 10 | > 10 | – | – | – | –
> 10 | c1cc2c(cc1-c1cn[nH]c1)COc1nc(N3CCC34CCCNC4)ccc1-2 (centres unmarked) [Compound 210] | > 10 | – | – | – | – | – | – | – | – | – | –
0.1 to 1 | c1cc2c(cc1-c1cn[nH]c1)COc1nc(N3CCC(NC4CC4)C3)ccc1-2 (centres unmarked) [Compound 211] | < 0.1 | – | – | – | – | – | – | – | – | – | –
– | CN(c1ccc2c(n1)CCOc1cc(-n3cccn3)ccc1-2)[C@@H]1C[C@H]2CC[C@@H](C1)N2 [Compound 128] | > 10 | > 10 | – | > 10 | – | > 10 | – | – | – | – | –
– | c1cnn(-c2ccc3c(c2)COc2nc(N(C4CC4)[C@@H]4C[C@H]5CCC[C@@H](C4)N5)ccc2-3)c1 [Compound 203] | 1 to 10 | 1 to 10 | – | – | – | – | – | – | – | – | –
0.1 to 1 | Cc1cc(-c2ccc3c(c2)COc2nc(O[C@@H]4C[C@H]5C[C@@H](C4)N5)ccc2-3)ccn1 [Compound 209] | – | – | 1 to 10 | 1 to 10 | 0.1 to 1 | 0.1 to 1 | 0.1 to 1 | – | – | – | –
– | CN(c1ccc2c(n1)COc1cc(-n3cccn3)ccc1-2)[C@@H]1C[C@H]2CC[C@@H](C1)N2 [Compound 109] | – | – | – | – | – | – | – | 0.1 to 1 | 0.1 to 1 | – | –
– | CN(c1ccc2c(c1)CCOc1cc(-c3cn[nH]c3)ccc1-2)[C@@H]1C[C@H]2CC[C@@H](C1)N2 [Compound 112] | – | – | – | > 10 | – | – | – | – | – | – | –
0.1 to 1 | CC(C)(C)NC1CCN(c2ccc3c(n2)OCc2cc(-c4cn[nH]c4)ccc2-3)C1 (centres unmarked) [Compound 212] | < 0.1 | – | – | – | – | – | – | – | – | – | –
– | c1cc2c(cc1N[C@@H]1C[C@H]3CC[C@@H](C1)N3)CCOc1cc(-c3cn[nH]c3)ccc1-2 [Compound 132] | > 10 | > 10 | – | > 10 | – | > 10 | – | – | – | – | –
– | CN(c1cnc2c(n1)OCc1cc(-c3cn[nH]c3)ccc1-2)C1CC(C)(C)NC(C)(C)C1 [Compound 138] | – | – | – | 1 to 10 | – | – | – | 1 to 10 | 1 to 10 | – | 1 to 10
– | CN(c1ccc2c(n1)CCOc1cc(-c3cn[nH]c3)ccc1-2)C1CC(C)(C)NC(C)(C)C1 [Compound 114] | 0.1 to 1 | < 0.1 | – | < 0.1 | – | 0.1 to 1 | – | – | – | – | –
1 to 10 | CC(C)(C)NC1CCN(c2ccc3c(n2)OCc2cc(-n4cccn4)ccc2-3)C1 (centres unmarked) [Compound 213] | 0.1 to 1 | – | – | – | – | – | – | – | – | – | –

Compound | IC50 (MYB [2]) [µM] | IC50 (HTT [1]; Homo sapiens, 24 h) [µM] | AC50 (HTT [1]; Homo sapiens, 24 h) [µM] | AC50 (MYB [2]) [µM] | IC50 (Target C; Homo sapiens) [µM] | IC50 (MYB [3]) [µM] | IC50 (HTT [4]; Homo sapiens) [µM] | IC50 (SMN2) [µM] | IC50 (HTT [1]; 24 hours) [µM] | AC50 (HTT [1]; 24 hours) [µM] | IC50 (Target C) [µM] | IC50 (HTT [4]) [µM]
c1cnn(-c2ccc3c(c2)COc2nc(S[C@@H]4C[C@H]5CC[C@@H](C4)N5)ccc2-3)c1 [Compound 193] | 1 to 10 | > 10 | > 10 | > 10 | > 10 | 1 to 10 | 1 to 10 | > 10 | – | – | – | –
CCN(c1ccc2c(n1)OCc1cc(-n3cccn3)ccc1-2)[C@@H]1C[C@H]2CC[C@@H](C1)N2 [Compound 191] | 1 to 10 | 0.1 to 1 | 1 to 10 | > 10 | 1 to 10 | 1 to 10 | 0.1 to 1 | 0.1 to 1 | – | – | – | –
c1cnn(-c2ccc3c(c2)OCc2nc(N[C@@H]4C[C@H]5CC[C@@H](C4)N5)ccc2-3)c1 [Compound 135] | 1 to 10 | – | – | > 10 | – | 1 to 10 | – | 1 to 10 | 1 to 10 | 1 to 10 | 1 to 10 | 1 to 10
CN(c1ccc2c(n1)CCOc1cc(-c3cn[nH]c3)ccc1-2)[C@@H]1C[C@H]2CC[C@@H](C1)N2 [Compound 127] | > 10 | > 10 | > 10 | > 10 | – | > 10 | > 10 | > 10 | – | – | – | –
CCN(c1ccc2c(n1)OCc1cc(-n3cccn3)ccc1-2)[C@@H]1C[C@H]2CCC[C@@H](C1)N2 [Compound 195] | 1 to 10 | – | – | > 10 | 1 to 10 | 1 to 10 | 0.1 to 1 | 0.1 to 1 | – | – | – | –
c1cc2c(cc1-c1cn[nH]c1)OCCc1nc(N[C@@H]3C[C@H]4CC[C@@H](C3)N4)ccc1-2 [Compound 140] | > 10 | > 10 | > 10 | > 10 | – | > 10 | > 10 | > 10 | – | – | – | –
